{
  "source": "paper PMC11091220",
  "about": "“Metabolism-driven in vitro/in vivo disconnect of an oral ERɑ VHL-PROTAC” (Communications Biology, 2024)",
  "key": {"ER-regulated genes": {"system": "ER-regulated genes", "experiment": "Gene expression analysis of ER-regulated genes (qPCR), MCF7 and CAMA1 cells", "assay_type": "cell-based", "conditions": "100 nM, 0.1 nM estradiol, 24 hours", "experimental": "MCF7 and CAMA1 cells were plated at 1.2 x 10^6 cells/well into 6-well TC-treated plates in phenol red-free RPMI containing 5% charcoal-stripped FBS (F6765, Sigma) and treated with 0.1 nM estradiol in the presence of 100 nM fulvestrant, 100 nM AZD9833, 100 nM AZ’6421 or DMSO control for 24 hours. A non-estradiol-treated control was also included with 3 biological replicates per condition. Samples were harvested in 1 mL of QIAzol Lysis Buffer and snap-frozen. RNA was extracted using the RNeasy 96 QIAcube HT total RNA Cell with DNAse treatment following manufacturer instructions. Samples were randomized over 96-well plates. RNA concentration was quantified using the Qubit RNA BR kit (# Q10213 Invitrogen) and RNA integrity was analyzed on a bioanalyzer using the RNA 6000 Nano Kit (# 5067-1511-Agilent) following the manufacturer’s instructions. Targeted gene expression was performed using a 48 × 48 or 96 × 96 Fluidigm dynamic array (Fluidigm, San Francisco CA, USA) and Taqman primers (Thermo Scientific, Waltham, MA). […] The Fluidigm Array was then primed and loaded on an IFC Controller and quantitative PCR (qPCR) experiments were run on the Biomark System, using the standard Default_10 min_HotStart protocol or M96_default protocol for 48 × 48 or 96 × 96 chips, respectively. Data were collected and analysed using the Fluidigm Real-Time PCR Analysis software to generate the Ct values. […]"}, "[1]": {"experiment": "Mouse pharmacokinetics, i.v./oral and enabling formulations", "assay_type": "in vivo", "experimental": "(*) AUC0-6 (data BLQ beyond 6 hours). TEXT PRINTED IN THE PICTURE: (e) Formulation SF: Dose normalised Cmax (μM): 0.009 (Oral dose (mg/kg): 1); Dose normalised AUC0-12 (μM.h): 0.02* (Oral dose (mg/kg): 1) | (e) Formulation EF1: Dose normalised Cmax (μM): 0.023 (Oral dose (mg/kg): 100); Dose normalised AUC0-12 (μM.h): 0.22 (Oral dose (mg/kg): 100) | (e) Formulation EF2: Dose normalised Cmax (μM): 0.002 (Oral dose (mg/kg): 100); Dose normalised AUC0-12 (μM.h): 0.009 (Oral dose (mg/kg): 100) | (e) Formulation EF3: Dose normalised Cmax (μM): 0.045 (Oral dose (mg/kg): 100); Dose normalised AUC0-12 (μM.h): 0.12 (Oral dose (mg/kg): 100); Dose normalised Cmax (μM): 0.016 (Oral dose (mg/kg): 30); Dose normalised AUC0-12 (μM.h): 0.06* (Oral dose (mg/kg): 30); Dose normalised Cmax (μM): 0.017 (Oral dose (mg/kg): 10); Dose normalised AUC0-12 (μM.h): 0.06* (Oral dose (mg/kg): 10) | (e) Formulation EF4: Dose normalised Cmax (μM): 0.022 (Oral dose (mg/kg): 100); Dose normalised AUC0-12 (μM.h): 0.10 (Oral dose (mg/kg): 100) | (e) Formulation EF5: Dose normalised Cmax (μM): 0.050 (Oral dose (mg/kg): 100); Dose normalised AUC0-12 (μM.h): 0.25 (Oral dose (mg/kg): 100); Dose normalised Cmax (μM): 0.013 (Oral dose (mg/kg): 30); Dose normalised AUC0-12 (μM.h): 0.045* (Oral dose (mg/kg): 30); Dose normalised Cmax (μM): 0.023 (Oral dose (mg/kg): 10); Dose normalised AUC0-12 (μM.h): 0.076* (Oral dose (mg/kg): 10)\nEach plasma sample ([…]) was prepared using an appropriate dilution factor, and compared against an 11-point standard calibration curve (1-10000 nM) prepared in DMSO and spiked into blank plasma. Acetonitrile ([…]) was added with the internal standard, followed by centrifugation at 3000 rpm for 10 minutes. The supernatant ([…]) was then diluted in […] acetonitrile:water (75:25) and analyzed via UPLC-MS/MS.\nThe MS/MS instrument used was either a Waters XEVO® TQ-S, Waters XEVO® TQ-D, or API 4000 (AB Sciex). The ultra-mass spectrometer used for sample analysis was completed in the MRM mode (MS/MS). Reverse-phase HPLC with a C18 column was used to separate the analytes. A mobile phase of 99% water/0.1% formic acid (solvent A) and a solvent phase of 99% acetonitrile/0.1% formic acid (solvent B) was used. A generic LC gradient elution was used at a flow rate of 0.5 mL/min with 95% solvent A and 5% solvent B for 0.3 min after which the concentration of solvent B was increased to 95% over 0.9 min before restoring it back to 5% for the remaining 0.5 min. Mass spectrometer methods were optimised for each compound."}},
  "note": "Like-named read-outs stand apart in the source and are kept apart here.",
  "data": [
    {"compound": "Cc1ncsc1-c1ccc(CNC(=O)[C@@H]2C[C@@H](O)CN2C(=O)[C@@H](NC(=O)COCCCOCCCOc2cc(F)c([C@@H]3c4[nH]c5ccccc5c4C[C@@H](C)N3CC(C)(C)F)c(F)c2)C(C)(C)C)cc1", "note": "[Compound 5]", "values": [
      {"measurement": "expression of ER-regulated genes", "setting": "ER-regulated genes", "value": "effectively supressed the expression of a range of ER-regulated genes"},
      {"measurement": "Plasma conc (total)", "setting": "[1]; IV 0.5 mg/kg, mouse, 0.03 h, listed as AZ'6421, 0.5 mg/kg", "value": 1770, "unit": "nM"},
      {"measurement": "Plasma conc (total)", "setting": "[1]; IV 0.5 mg/kg, 0.17 h, listed as AZ'6421, 0.5 mg/kg", "value": 219, "unit": "nM"},
      {"measurement": "Plasma conc (total)", "setting": "[1]; IV 0.5 mg/kg, 0.5 h, listed as AZ'6421, 0.5 mg/kg", "value": 58.2, "unit": "nM"},
      {"measurement": "Plasma conc (total)", "setting": "[1]; IV 0.5 mg/kg, 1 h, listed as AZ'6421, 0.5 mg/kg", "value": 27.9, "unit": "nM"},
      {"measurement": "Plasma conc (total)", "setting": "[1]; IV 0.5 mg/kg, 2 h, listed as AZ'6421, 0.5 mg/kg", "value": 15.2, "unit": "nM"},
      {"measurement": "Plasma conc (total)", "setting": "[1]; IV 0.5 mg/kg, 4 h, listed as AZ'6421, 0.5 mg/kg", "value": 6.74, "unit": "nM"},
      {"measurement": "Plasma conc (total)", "setting": "[1]; IV 0.5 mg/kg, 6 h, listed as AZ'6421, 0.5 mg/kg", "value": 4.38, "unit": "nM"},
      {"measurement": "Plasma conc (total)", "setting": "[1]; IV 0.5 mg/kg, 8 h, listed as AZ'6421, 0.5 mg/kg", "value": 2.82, "unit": "nM"},
      {"measurement": "Plasma conc (total)", "setting": "[1]; Oral 1 mg/kg in SF, mouse, 0.5 h, listed as AZ'6421, 1 mg/kg", "value": 4.03, "unit": "nM"},
      {"measurement": "Plasma conc (total)", "setting": "[1]; Oral 1 mg/kg in SF, 1 h, listed as AZ'6421, 1 mg/kg", "value": 6.69, "unit": "nM"},
      {"measurement": "concentration at 0.03 h", "setting": "[1]; mouse, plasma, iv, 0.5 mg/kg, IV 0.5 mg/kg, mouse, 0.03 h, read-out: Plasma conc (total)", "value": 1990, "unit": "nM"},
      {"measurement": "concentration at 0.17 h", "setting": "[1]; mouse, plasma, iv, 0.5 mg/kg, IV 0.5 mg/kg, 0.17 h, read-out: Plasma conc (total)", "value": 261, "unit": "nM"},
      {"measurement": "concentration at 0.5 h", "setting": "[1]; mouse, plasma, iv, 0.5 mg/kg, IV 0.5 mg/kg, 0.5 h, read-out: Plasma conc (total)", "value": 89, "unit": "nM"},
      {"measurement": "concentration at 1 h", "setting": "[1]; mouse, plasma, iv, 0.5 mg/kg, IV 0.5 mg/kg, 1 h, read-out: Plasma conc (total)", "value": 41.9, "unit": "nM"},
      {"measurement": "concentration at 2 h", "setting": "[1]; mouse, plasma, iv, 0.5 mg/kg, IV 0.5 mg/kg, 2 h, read-out: Plasma conc (total)", "value": 16.9, "unit": "nM"},
      {"measurement": "concentration at 4 h", "setting": "[1]; mouse, plasma, iv, 0.5 mg/kg, IV 0.5 mg/kg, 4 h, read-out: Plasma conc (total)", "value": 7.09, "unit": "nM"},
      {"measurement": "concentration at 6 h", "setting": "[1]; mouse, plasma, iv, 0.5 mg/kg, IV 0.5 mg/kg, 6 h, read-out: Plasma conc (total)", "value": 3.27, "unit": "nM"},
      {"measurement": "concentration at 8 h", "setting": "[1]; mouse, plasma, iv, 0.5 mg/kg, IV 0.5 mg/kg, 8 h, read-out: Plasma conc (total)", "value": 2.02, "unit": "nM"},
      {"measurement": "clearance", "setting": "[1]; mouse, plasma, iv, 0.5 mg/kg i.v., read-out: mouse in vivo clearance", "value": 22, "unit": "mL/min/kg"},
      {"measurement": "concentration at 0.5 h", "setting": "[1]; mouse, plasma, po, 1 mg/kg, Oral 1 mg/kg in SF, mouse, 0.5 h, read-out: Plasma conc (total)", "value": 2.24, "unit": "nM"},
      {"measurement": "concentration at 1 h", "setting": "[1]; mouse, plasma, po, 1 mg/kg, Oral 1 mg/kg in SF, 1 h, read-out: Plasma conc (total)", "value": 9.06, "unit": "nM"},
      {"measurement": "concentration at 4 h", "setting": "[1]; mouse, plasma, po, 1 mg/kg, Oral 1 mg/kg in SF, 4 h, read-out: Plasma conc (total)", "value": 2.98, "unit": "nM"},
      {"measurement": "AUC", "setting": "[1]; plasma, po, 1 mg/kg p.o., SF, mouse, read-out: oral exposure (AUC)", "value": 0.02, "unit": "µM·h"}
    ]}
  ]
}
